{
  "source": "patent US20260098008A1",
  "about": "“COVALENT, CHEMOGENETIC ACTIVATORS FOR K2P POTASSIUM CHANNELS AND USES THEREOF” (THE REGENTS OF THE UNIVERSITY OF CALIFORNIA, priority 2022, published 2026)",
  "system": "HEK293 cells (no exogenous K2P expression)",
  "test": "Resting membrane potential, current-clamp (I=0) in control HEK293 cells",
  "assay_type": "cell-based",
  "settings": "20 μM CAT335",
  "experimental": "50% confluent cells were co-transfected (in 35-mm diameter wells) with 10-100 ng of the K2P2.1 plasmid and 400 ng of an eGFP plasmid (for visualization) using LipofectAMINE 2000 (Invitrogen) for 24 h, after which the cells were either plated onto coverslips or the media exchanged with fresh media. Cells were plated onto Matrigel coated coverslips (BD Biosciences) 1-2 hours before experiments.\nWhole-cell patch-clamp experiments with K2P2.1(TREK-1) and mutants were carried out 24-48 h after transfection. Acquisition and analysis for voltage-clamp experiments were performed using pCLAMP10 and an Axopatch 200B amplifier (Molecular Devices). Current-clamp experiments were acquired using an […] amplifier (Molecular Devices). Pipettes were pulled using a Flaming/Brown micropipette puller (P-97, Sutter Instruments) and flame-polished using a MF-830 microforge (Narishige). Electrode resistance after filling with pipette internal solution ranged from 2 to 5 MΩ. Currents were low-pass filtered at 2 kHz and sampled at 10 kHz. Pipette solution contained the following: 145 mM KCl, 3 mM MgCl2, 5 mM EGTA and 20 mM HEPES (pH 7.2 with KOH). Bath solution contained the following: 145 mM NaCl, 5 mM KCl, 1 mM CaCl2, 3 mM MgCl2 and 20 mM HEPES (pH 7.4 with NaOH). […] Data were analyzed using Clampfit 11 and GraphPad Prism 9.",
  "data": [
    {"smiles": "O=C(NCc1ccc(Cl)cc1Cl)c1ccc(N2C(=O)C=CC2=O)cc1", "note": "[CAT335]", "values": [
      {"measurement": "Change of resting membrane potential (ΔRMP)", "result": "+7 mV"}
    ]}
  ]
}
